The source of these data is ChEMBL document CHEMBL1132869, “The first synthesis of clausenamine-A and cytotoxic activities of three biscarbazole analogues against cancer cells” (2000).

Each structure is given as a SMILES string.

Settings in all cases: Homo sapiens
One test concerns A498. Briefly: In vitro inhibitory activity against A-498 […] cancer cell lines. Type of test: functional.
A further test has as its system CAKI-1. Description: In vitro inhibitory activity against CAKI-1 […] cancer cell lines. Type of test: functional.
In a further test the test system is HL-60. Description: In vitro inhibitory activity against HL-60 cancer cell lines. Type of test: functional.
For another test, the system named is HT-29. Description: In vitro inhibitory activity against HT-29 colon cancer cell lines. Type of test: functional.
Another test concerns K562. Description: In vitro inhibitory activity against K-562 cancer cell lines. Type of test: functional.
The subject of the next test is MCF7. Description: In vitro inhibitory activity against MCF-7 breast cancer cell lines. Type of test: functional.
Another test relates to MDA-MB-435. Briefly: In vitro inhibitory activity against MDA-MB-435 breast cancer cell lines. Type of test: functional.
The next test deals with MDA-N. Briefly: In vitro inhibitory activity against MDA-N breast cancer cell lines. Type of test: functional.
In a further test the test system is MOLT-4. Briefly: In vitro inhibitory activity against MOLT-4 cancer cell lines. Type of test: functional.
A further test concerns OVCAR-5. Briefly: In vitro inhibitory activity against OVCAR-5 ovarian cancer cell lines. Type of test: functional.
For a further test, the system named is RPMI-8226. Description: In vitro inhibitory activity against […] cancer cell lines. Type of test: functional.
In another test the test system is SR. Briefly: In vitro inhibitory activity against SR cancer cell lines. Type of test: functional.
The subject of the next test is SF-295. Description: In vitro inhibitory activity against SF-295 […] cancer cell lines. Type of test: functional.
The subject of a further test is SK-MEL-5. Description: In vitro inhibitory activity against SK-MEL-5 melanoma cancer cell lines. Type of test: functional.
The next test concerns UO-31. Briefly: In vitro inhibitory activity against UO-31 renal cancer cell lines. Type of test: functional.
The next test concerns HCT-15. Briefly: In vitro inhibitory activity against HCT-15 colon cancer cell lines. Type of test: functional.
The next test has as its system NCI-H23. Briefly: In vitro inhibitory activity against NIC-H23 lung cancer cell lines.

What is called GI50 is the concentration giving 50% growth inhibition.

Take `Cc1cc2c([nH]c3ccccc32)c(O)c1-c1c(C)cc2c([nH]c3ccccc32)c1O`: the GI50 was found to be 15.9 µM in the test with A498; 14.7 µM in the test on CAKI-1; 32.9 µM in the test with HL-60; 6.04 µM in the test on HT-29; 12.3 µM in the test on K562; 11.2 µM with MCF7. In addition, the GI50 with MDA-MB-435 was 15 µM; in the test with MDA-N, 14.7 µM; in the test with MOLT-4, 3.62 µM; with OVCAR-5, 15 µM; in the test on RPMI-8226, 3.85 µM; with SR, 3.16 µM. The GI50 in the test on SF-295 turned out to be 17.4 µM; in the test with SK-MEL-5, 16.5 µM; with UO-31, 13 µM; in the test on HCT-15, 10.1 µM; with NCI-H23, 12.4 µM.
In the case of `COc1cc(OC)c2[nH]c3c(O)c(-c4c(C)cc5c([nH]c6c(OC)cc(OC)cc65)c4O)c(C)cc3c2c1`, the GI50 in the test with A498 was found to be 7.82 µM; with CAKI-1 it was 9.89 µM; in the test with HL-60 it was 2.82 µM; in the test on HT-29, 8.03 µM; with K562 it was 9.7 µM; in the test with MCF7, 8.68 µM. Moreover, the GI50 with MDA-MB-435 is 12 µM; in the test with MDA-N it was 8.83 µM; with MOLT-4 it was 8.59 µM; with OVCAR-5 it was 9.03 µM; in the test on RPMI-8226, 10.5 µM; in the test with SR, 9.01 µM. Also, the GI50 in the test on SF-295 is 10.2 µM; in the test on SK-MEL-5 it was 8.38 µM; with UO-31, 6.84 µM; with HCT-15, 8.28 µM; in the test with NCI-H23 it was 8.2 µM.
Regarding `COc1ccc2[nH]c3c(O)c(-c4c(C)cc5c([nH]c6ccc(OC)cc65)c4O)c(C)cc3c2c1`, the GI50 in the test on A498 amounted to 4.78 µM; in the test on CAKI-1 it was 4.27 µM; with HL-60, 0.0321 µM; with HT-29, 3.71 µM; in the test with K562, 4.04 µM; with MCF7, 4.49 µM. The GI50 in the test with MDA-MB-435 was 4.34 µM; in the test on MDA-N it was 4.5 µM; with MOLT-4, 3.23 µM; in the test on OVCAR-5, 3.82 µM; in the test with RPMI-8226 it was 3.61 µM; in the test on SR it was 3.97 µM. The GI50 in the test with SF-295 stood at 5.11 µM; in the test with SK-MEL-5, 4.34 µM; in the test with UO-31, 3.78 µM; with HCT-15, 4.2 µM; with NCI-H23, 4.48 µM.
